For 1 molecule, MIC results are on record in PMC4733634 (Journal of the American Chemical Society, 2015).

Values after ≈ are worked out from the molar mass of the structure shown.

The test system of assay [1] is lab generated F98Y mutant strain. Nature of the assay: Minimum inhibitory concentration, micro-dilution broth assay, F98Y mutant strain. The assay is classed as cell-based, S. aureus. The settings on record: Staphylococcus aureus, 18 h, read-out: MIC Sa(F98Y).
In assay [2] the test system is S. aureus quality control strain 43300 (ATCC). The assay is described as follows: microbe, parasite or virus in culture. It counts as cell-based. The settings on record: Staphylococcus aureus, ATCC43300|MRSA, 18 h, read-out: MIC wild-type S.aureus.

As to `COc1cc(Cc2cnc(N)nc2N)cc(OC)c1OC` [TMP, trimethoprim], the MIC was determined as 10 µg/mL (≈ 34.4 µM) in assay [1] and 0.312 µg/mL (≈ 1.08 µM) in assay [2].
